Data on 41 molecules can be found in patent US7772260B2, “Imidazo[2,1-b]-1,3,4-thiadiazole sulfonamides” (Aegera Therapeutics Inc., priority 2001, dated 2010).

One assay has as its target CA II (Homo sapiens, UniProt P00918). The experiment in a line: CA II inhibition. In kind it is biochemical. To be noted: read-out: IC(50), CA II inhibition. On the procedure:
CA II inhabition was measured using the protocol described by Pocker, Y.'Stone, J. Biochemistry 1967, 6, 668.

The test system of another assay is SCG neurons. Nature of the assay: cells. To be noted: for IC50: Rattus norvegicus, Neuron, Taxol™ (50 ng/mL), viability 48 hours later, MTS, read-out: IC(50), protection of SCG neurons from Taxol killing; for inhibition of Taxol™ induced killing of SCGs: concentrations as high as 50 μM. In kind it is cell-based, Sprague Dawley rats. On the procedure:
Taxol™ is regularly used in breast cancer chemotherapy. In cancer cells Taxol™ binds to the cyto-skeletal protein tubulin, thereby inhibiting normal microtubular assembly and inducing cellular apoptosis. Despite its potency as an anti-tumour agent, Taxol™ is also toxic to neurons, inducing dose limiting peripheral neuropathies. The addition of Taxol™ (100 ng/mL) to cultured SCG neurons induces the degradation or loss of upwards of 80% of the neurons.
FIG. 1 illustrates the protection provided by compound 1 (referred to here as AEG3482) against Taxol™ induced killing. PI Sprague Dawley rat SCG neurons were cultured and incubated with NGF (50 ng/mL) for 5 days.

Structures can show the parent of a compound that is named as a salt. Some results are limits rather than exact numbers.

Turning to `NS(=O)(=O)c1nn2cc(-c3ccc(F)cc3)nc2s1` [Compound 4, 6-(4-Fluorophenyl)imidazo[2,1-b]-1,3,4-thiadiazole-2-sulfonamide], the IC50 at CA II is 217 nM; with SCG neurons, 5000 nM.
In the case of `NS(=O)(=O)c1nn2cc(-c3ccc(F)c(F)c3)nc2s1` [Compound 5, 6-(3,4-Difluorophenyl)imidazo[2,1-b]-1,3,4-thiadiazole-2-sulfonamide], the IC50 at CA II came out at 192 nM; in the assay on SCG neurons it was 5000 nM.
For `NS(=O)(=O)c1nn2cc(-c3c(F)c(F)c(F)c(F)c3F)nc2s1` [Compound 6, 6-(2,3,4,5,6-Pentafluorophenyl)imidazo[2,1-b]-1,3,4-thiadiazole-2-sulfonamide] the same measures were 164 nM and 3000 nM.
In the case of `CCSc1c(F)c(F)c(-c2cn3nc(S(N)(=O)=O)sc3n2)c(F)c1F` [Compound 7, 6-(4-Ethylthio-2,3,5,6-tetrafluorophenyl)imidazo[2,1-b]-1,3,4-thiadiazole-2-sulfonamide], the IC50 was 581 nM at CA II and 4000 nM in the assay with SCG neurons.
Taken in the same sequence, the figures for `NS(=O)(=O)c1nn2cc(-c3c(F)c(F)c(SCc4ccccc4)c(F)c3F)nc2s1` [Compound 8, 6-(4-Benzylthio-2,3,5,6-tetrafluorophenyl)imidazo[2,1-b]-1,3,4-thiadiazole-2-sulfonamide] were 1470 nM and 5000 nM.
Taken in the same sequence, the figures for `NS(=O)(=O)c1nn2cc(-c3ccc(Cl)c(Cl)c3)nc2s1` [Compound 11, 6-(3,4-Dichlorophenyl)imidazo[2,1-b]-1,3,4-thiadiazole-2-sulfonamide] were 1800 nM and 3000 nM.
For the molecule `NS(=O)(=O)c1nn2cc(-c3ccc(Cl)c(Cl)c3Cl)nc2s1` [Compound 12, 6-(2,3,4-trichlorophenyl)imidazo[2,1-b]-1,3,4-thiadiazole-2-sulfonamide], the IC50 at CA II was 1590 nM; in the assay with SCG neurons it was 5000 nM.
For `NS(=O)(=O)c1nn2cc(-c3cccc(Br)c3)nc2s1` [Compound 13, 6-(3-bromophenyl)imidazo[2,1-b]-1,3,4-thiadiazole-2-sulfonamide] the same measures were 4050 nM and 7000 nM.
Regarding `NS(=O)(=O)c1nn2cc(-c3ccc(Br)cc3)nc2s1` [Compound 14, 6-(4-Bromophenyl)-imidazo[2,1-b]-1,3,4-thiadiazole-2-sulfonamide], the values for the IC50 at CA II and in the assay on SCG neurons were 198 nM and 5000 nM, respectively.
Taken in the same sequence, the figures for `COc1ccccc1-c1cn2nc(S(N)(=O)=O)sc2n1` [Compound 15, 6-(2-Methoxyphenyl)imidazo[2,1-b]-1,3,4-thiadiazole-2-sulfonamide] were 152 nM and 10000 nM.
Taken in the same sequence, the figures for `COc1cccc(-c2cn3nc(S(N)(=O)=O)sc3n2)c1` [Compound 16, 6-(3-Methoxyphenyl)imidazo[2,1-b]-1,3,4-thiadiazole-2-sulfonamide] were 150 nM and 5000 nM.
For `COc1ccc(-c2cn3nc(S(N)(=O)=O)sc3n2)cc1` [Compound 17, 6-(4-Methoxyphenyl)imidazo[2,1-b]-1,3,4-thiadiazole-2-sulfonamide] the same measures were 179 nM and 3000 nM.
For the molecule `COc1ccc(OC)c(-c2cn3nc(S(N)(=O)=O)sc3n2)c1` [Compound 18, 6-(2,5-Dimethoxyphenyl)imidazo[2,1-b]-1,3,4-thiadiazole-2-sulfonamide], the results for the IC50 on CA II and in the assay on SCG neurons were 337 nM and 20000 nM, respectively.
With `COc1ccc(-c2cn3nc(S(N)(=O)=O)sc3n2)c(OC)c1` [Compound 19, 6-(2,4-Dimethoxyphenyl)imidazo[2,1-b]-1,3,4-thiadiazole-2-sulfonamide], the IC50 amounted to 373 nM at CA II and 15000 nM in the assay with SCG neurons.
`NS(=O)(=O)c1nn2cc(-c3ccc4c(c3)OCO4)nc2s1` [Compound 20, 6-(1,3-Benzodioxol-5-yl)imidazo[2,1-b]-1,3,4-thiadiazole-2-sulfonamide]: the IC50 amounted to 404 nM at CA II and 15000 nM in the assay on SCG neurons.
For `NS(=O)(=O)c1nn2cc(-c3ccc(O)c(O)c3)nc2s1` [Compound 22] the same measures were 153 nM and 25000 nM.
Taken in the same sequence, the figures for `NS(=O)(=O)c1nn2cc(-c3cccc(OC(F)(F)F)c3)nc2s1` [Compound 24, 6-(3-trifloromethoxyphenyl)imidazo[2,1-b]-1,3,4-thiadiazole-2-sulfonamide] were 613 nM and 7000 nM.
Take `NS(=O)(=O)c1nn2cc(-c3ccc(C(=O)O)cc3)nc2s1` [Compound 39]: the IC50 at CA II was 154 nM.
For `CS(=O)(=O)c1ccc(-c2cn3nc(S(N)(=O)=O)sc3n2)cc1` [Compound 43, 6-(4-(methylsulfonyl)phenyl)imidazo[2,1-b]-1,3,4-thiadiazole-2-sulfonamide], at CA II, the IC50 is 886 nM.
In the case of `CCN(CC)S(=O)(=O)c1ccc(-c2cn3nc(S(N)(=O)=O)sc3n2)cc1` [Compound 45], the IC50 on CA II was 166 nM.
With `NS(=O)(=O)c1nn2c(Cl)c(-c3ccc(-c4ccccc4)cc3)nc2s1` [Compound 131, 5-Chloro-6-(biphenyl)imidazo[2,1-b]-1,3,4-thiadiazole-2-sulfonamide hydrobromide], the IC50 in the assay on SCG neurons is 3000 nM.
On to `NS(=O)(=O)c1nn2c(Br)c(-c3ccc(-c4ccccc4)cc3)nc2s1` [Compound 132, 5-Bromo-6-(biphenyl)imidazo[2,1-b]-1,3,4-thiadiazole-2-sulfonamide hydrobromide], for which, in the assay on SCG neurons, the IC50 is 1000 nM.
The same measure, in the same setting: in the case of `NS(=O)(=O)c1nn2c(Br)c(C(F)(F)F)nc2s1` [Compound 134, 5-Bromo-6-trifluoromethylimidazo[2,1-b]-1,3,4-thiadiazole-2-sulfonamide] it was 1000 nM.
On to `NS(=O)(=O)c1nn2c(Sc3ccccc3)c(-c3ccc4ccccc4c3)nc2s1` [Compound 135, 5-Thiophenyl-6-(2-naphthyl)imidazo[2,1-b]-1,3,4-thiadiazole-2-sulfonamide], for which the IC50 with SCG neurons was 7000 nM.
On to `Nc1nnc(Sc2c(-c3ccc4ccccc4c3)nc3sc(S(N)(=O)=O)nn23)s1` [Compound 136], for which the IC50 in the assay on SCG neurons came to 5000 nM.
Consider `CNS(=O)(=O)c1nn2cc(-c3c(F)c(F)c(F)c(F)c3F)nc2s1` [Compound 138, 6-(2,3,4,5,6-pentafluorophenyl)imidazo[2,1-b]-1,3,4-thiadiazole-2-N-methylsulfonamide], for which the IC50 in the assay with SCG neurons is 2000 nM.
With `CN(C)S(=O)(=O)c1nn2cc(-c3c(F)c(F)c(F)c(F)c3F)nc2s1` [Compound 140, 6-(2,3,4,5,6-pentafluorophenyl)imidazo[2,1-b]-1,3,4-thiadiazole-2-N,N-dimethylsulfonamide], in the assay on SCG neurons, the IC50 was found to be 5000 nM.
Still for that read-out and setting: with `CCN(CC)S(=O)(=O)c1nn2cc(-c3cccc(OC)c3)nc2s1` [Compound 141] the figure was > 30000 nM.
Same read-out and setting: with `CN(C)S(=O)(=O)c1nn2cc(-c3ccc(Br)cc3)nc2s1` [Compound 143, 6-(4-Bromophenyl)imidazo[2,1-b]-1,3,4-thiadiazole-2-N,N-dimethylsulfonamide] the figure was 10000 nM; with `CN(C)S(=O)(=O)c1nn2c(Br)c(-c3ccc(Br)cc3)nc2s1` [Compound 144, hydrobromide], 15000 nM.
On the same count and under the same terms, with `CN(C)S(=O)(=O)c1nn2cc(-c3cccc(O)c3)nc2s1` [Compound 145] the figure was 20000 nM.
Consider `CN(C)S(=O)(=O)c1nn2cc(-c3cccc(OC(=O)c4ccccc4)c3)nc2s1` [Compound 146, 6-(3-Benzoyloxyphenyl)imidazo[2,1-b]-1,3,4-thiadiazole-2-N,N-dimethylsulfonamide], for which the IC50 in the assay on SCG neurons was 20000 nM.
Turning to `CN(C)S(=O)(=O)c1nn2cc(-c3ccc4ccccc4c3)nc2s1` [Compound 147, 6-(2-Naphthyl)imidazo[2,1-b]-1,3,4-thiadiazole-2-N,N-dimethylsulfonamide], the IC50 in the assay with SCG neurons came to 17000 nM.
The same measure, in the same setting: in the case of `[N-]=[N+]=Nc1c(F)c(F)c(-c2cn3nc(S(N)(=O)=O)sc3n2)c(F)c1F` [Compound 151, 6-(4-Azido-2,3,5,6-tetraflourophenyl)imidazo[2,1-b]-1,3,4-thiadiazole-2-sulfonamide] it was 2000 nM; in that of `CN(C)S(=O)(=O)c1nn2cc(-c3c(F)c(F)c(N=[N+]=[N-])c(F)c3F)nc2s1` [Compound 152, 6-(4-azido-2,3,5,6-pentafluorophenyl)imidazo[2,1-b]-1,3,4-thiadiazole-2-N,N-dimethylsulfonamide], 2000 nM.
In the case of `NS(=O)(=O)c1nn2cc(-c3ccc([N+](=O)[O-])cc3)nc2s1` [Compound 153, 6-(4-Nitrophenyl)imidazo[2,1-b]-1,3,4-thiadiazole-2-sulfonamide], the IC50 in the assay on SCG neurons was 5000 nM.
Regarding `CCN[C@H]1C[C@H](C)S(=O)(=O)c2sc(S(N)(=O)=O)cc21` [Dorzolamide, reference compound], the “inhibition of Taxol™ induced killing of SCGs” value (from here on “inhibition”) in the assay with SCG neurons is on record as “failed to significantly inhibit”.
For the molecule `CC(=O)Nc1ccc(S(=O)(=O)Nc2nnc(S(N)(=O)=O)s2)cc1` [N-acetylaminobenzolamide, reference compound], in the assay on SCG neurons, the “inhibition” value is “failed to significantly inhibit”.
In the case of `CC(=O)Nc1nnc(S(N)(=O)=O)s1` [acetazolamide, reference compound], the “inhibition” value in the assay with SCG neurons is “failed to significantly inhibit”.
Same read-out and setting: with `Nc1ccc(S(=O)(=O)Nc2nnc(S(N)(=O)=O)s2)cc1` [aminobenzolamide, reference compound] the entry was “failed to significantly inhibit”.
As to `CC(=O)/N=c1/sc(S(N)(=O)=O)nn1C` [methazolamide, reference compound], the “inhibition” value with SCG neurons is reported as “failed to significantly inhibit”.
